In the RepoRT retention time repository (doi:10.1038/s41586-021-03707-9) one finds LC retention time data, which are given here for 76 molecules.

The structures appear in SMILES notation.

Data set [1] can be described thus: RP, Waters ACQUITY UPLC HSS C18, 100 × 2.1 mm, 1.7 µm, 40 °C, 0.35 mL/min, estimated dead time 0.63 min; A: water + 0.1% formic acid; B: methanol + 0.1% formic acid; gradient (min/%B) 0/0.5 4/70 4.5/98 5.4/98. As to conditions: stereoisomer not certain.
Data set [2] can be described thus: Waters ACQUITY UPLC BEH C18, 100 × 2.1 mm, 1.7 µm, 40 °C, 0.28 mL/min, estimated dead time 0.63 min; A: water + 6.5 mM ammonium hydroxide; B: methanol + 6.5 mM ammonium hydroxide; gradient (min/%B) 0/0.5 4/70 4.5/98 5.4/98. The note with it: stereoisomer not certain.

For `Cc1cccc(C(=O)O)c1O`, the LC retention time in data set [1] is 5.29 min; in data set [2], 3.44 min.
Turning to `Nc1ncnc2c1ncn2C1CC(O)C(COP(=O)(O)O)O1` (configuration not stated), the LC retention time is 1.56 min in data set [1] and 1.31 min in data set [2].
For `OCc1ccccc1OC1OC(CO)C(O)C(O)C1O` (configuration not stated) the same measures were 2.82 min and 2.89 min.
The matching figures for `O=c1ccn(C2CC(O)C(CO)O2)c(=O)[nH]1` (configuration not stated): 1.85 min and 1.87 min.
For `CC(C)NCC(O)COc1ccc(CC(N)=O)cc1` (configuration not stated) the same measures were 2.35 min and 3.57 min.
On to `Nc1ncnc2c1ncn2C1OC(CO)C2OP(=O)(O)OC21` (configuration not stated), for which the LC retention time in data set [1] was 1.68 min; in data set [2], 2.11 min.
On to `NCCc1c[nH]c2ccccc12`, for which the LC retention time in data set [1] was 2.82 min; in data set [2] it was 3.67 min.
For `CC(=O)c1ccc(O)cc1O` the same measures were 4.09 min and 3.05 min.
For `NC(=O)NC1NC(=O)NC1=O` (configuration not stated) the same measures were 0.855 min and 0.799 min.
Turning to `NC(Cc1c[nH]c2ccc(O)cc12)C(=O)O` (configuration not stated), the LC retention time in data set [1] was 1.97 min; in data set [2] it was 1.9 min.
For `NCCc1ccc(O)cc1` the same measures were 1.7 min and 2.22 min.
For `O=C(O)Cc1c[nH]c2ccccc12`, the figures for the LC retention time in data set [1] and in data set [2] were 4.21 min and 2.51 min, respectively.
The matching figures for `NC(Cc1ccc(O)c(O)c1)C(=O)O` (configuration not stated): 1.29 min and 1.1 min.
For `Cc1ncc(CO)c(C(=O)O)c1O` the same measures were 1.97 min and 2.54 min.
The matching figures for `CSCCC(NC(C)=O)C(=O)O` (configuration not stated): 2.98 min and 2.07 min.
With `O=C1CCCc2[nH]ccc21`, the LC retention time was 2.95 min in data set [1] and 3.04 min in data set [2].
In the case of `[2H]c1[nH]c2c([2H])c([2H])c([2H])c([2H])c2c1CC(=O)O`, the figures for the LC retention time in data set [1] and in data set [2] were 4.22 min and 2.49 min, respectively.
The matching figures for `CC(=O)NCCCCN`: 0.91 min and 1.29 min.
For the molecule `Cn1c(=O)[nH]c2ncn(C)c2c1=O`, the LC retention time in data set [1] was 2.8 min; in data set [2], 2.68 min.
For `CC(C(=O)O)c1cccc(C(=O)c2ccccc2)c1` (configuration not stated) the same measures were 5.37 min and 4.61 min.
For `CCC(C)(O)C(=O)O` (configuration not stated) the same measures were 2.87 min and 0.857 min.
Take `O=C(O)Cc1cnc[nH]1`: the LC retention time is 0.825 min in data set [1] and 0.817 min in data set [2].
Regarding `COC(=O)c1ccc(O)c(OC)c1`, the LC retention time is 4.36 min in data set [1] and 4.18 min in data set [2].
For `COc1cc(CCN)ccc1O` the same measures were 1.99 min and 2.57 min.
The matching figures for `O=c1ccc2cc(OC3OC(CO)C(O)C(O)C3O)c(O)cc2o1` (configuration not stated): 2.78 min and 2.17 min.
For `O=C(O)Cc1cc(O)ccc1O`, the figures for the LC retention time in data set [1] and in data set [2] were 2.23 min and 1.49 min, respectively.
As to `COc1cc(O)cc(OC)c1`, the LC retention time in data set [1] was 4.13 min; in data set [2] it was 4.22 min.
For `CCCCNC(=O)NS(=O)(=O)c1ccc(C)cc1` the same measures were 5.11 min and 4.37 min.
Take `CSCC1OC(n2cnc3c(N)ncnc32)C(O)C1O` (configuration not stated): the LC retention time in data set [1] is 2.85 min; in data set [2], 3.51 min.
The matching figures for `O=C(NC(O)C(=O)O)c1ccccc1` (configuration not stated): 2.8 min and 2.02 min.
For `O=C(O)CNC(=O)Cc1ccccc1` the same measures were 3.49 min and 2.69 min.
On to `COc1cc(CC(=O)O)ccc1O`, for which the values for the LC retention time in data set [1] and in data set [2] were 3.42 min and 1.89 min, respectively.
The matching figures for `OCC1OC(OC2(CO)OC(CO)C(O)C2O)C(O)C(O)C1O` (configuration not stated): 0.86 min and 0.962 min.
For `O=c1ccn(C2OC(CO)C(O)C2O)c(=O)[nH]1` (configuration not stated) the same measures were 1.66 min and 1.67 min.
Regarding `C[N+](C)(C)CCCC(=O)[O-]`, the LC retention time in data set [1] is 0.814 min; in data set [2] it was 0.803 min.
The matching figures for `CC1C(=O)Nc2ccccc21` (configuration not stated): 4.43 min and 4.59 min.
The matching figures for `CCCCC(N)C(=O)O` (configuration not stated): 1.96 min and 1.77 min.
On to `Nc1ncnc2c1ncn2C1OC2COP(=O)(O)OC2C1O` (configuration not stated), for which the values for the LC retention time in data set [1] and in data set [2] were 1.95 min and 2.32 min, respectively.
`Nc1ccn(C2CC(O)C(CO)O2)c(=O)n1` (configuration not stated): the LC retention time in data set [1] was 1.29 min; in data set [2] it was 1.73 min.
For `NC(Cc1ccc(O)c([N+](=O)[O-])c1)C(=O)O` (configuration not stated), the LC retention time was 2.44 min in data set [1] and 1.1 min in data set [2].
The matching figures for `Cc1cc2nc3c(=O)[nH]c(=O)nc-3n(CC(O)C(O)C(O)CO)c2cc1C` (configuration not stated): 3.5 min and 3.61 min.
For `CCN(CC)CCNC(=O)c1ccc(N)cc1` the same measures were 2.01 min and 3.81 min.
For `CC(=O)OC(CC(=O)[O-])C[N+](C)(C)C` (configuration not stated) the same measures were 0.864 min and 0.849 min.
With `O=C(O)C(O)Cc1c[nH]c2ccccc12` (configuration not stated), the LC retention time in data set [1] is 3.93 min; in data set [2], 2.59 min.
With `COc1ccc2[nH]cc(CC(=O)O)c2c1`, the LC retention time in data set [1] was 4.09 min; in data set [2] it was 2.72 min.
For `NC(=O)C(N)Cc1c[nH]c2ccccc12` (configuration not stated) the same measures were 2.44 min and 3.46 min.
The matching figures for `Nc1c(O)cccc1C(=O)O`: 2.57 min and 0.924 min.
For `CCC(O)(CC)C(=O)O` the same measures were 3.56 min and 1.31 min.
For the molecule `Cn1c(=O)[nH]c2[nH]c(=O)n(C)c2c1=O`, the LC retention time in data set [1] is 2.78 min; in data set [2], 1.81 min.
For `CC(C)(N)C(=O)O` the same measures were 0.821 min and 0.806 min.
`NCCCCC(=O)O`: the LC retention time is 0.909 min in data set [1] and 0.812 min in data set [2].
In the case of `COc1ccc2[nH]cc(CCNC(C)=O)c2c1`, the LC retention time is 4.05 min in data set [1] and 4.19 min in data set [2].
For `NCCc1c[nH]c2ccc(O)cc12` the same measures were 1.9 min and 2.35 min.
As for `Nc1ccn(C2OC(CO)C(O)C2O)c(=O)n1` (configuration not stated), the LC retention time in data set [1] is 1.1 min; in data set [2], 1.49 min.
On to `CCCCCCCC(=O)OC(CC(=O)[O-])C[N+](C)(C)C` (configuration not stated), for which the LC retention time in data set [1] is 4.65 min; in data set [2], 5.1 min.
For `Oc1ccc2[nH]ccc2c1`, the LC retention time in data set [1] was 2.9 min; in data set [2] it was 2.98 min.
The matching figures for `CC(O)CC(=O)O` (configuration not stated): 0.799 min and 0.804 min.
Turning to `CCOC(=O)C1=CC(OC(CC)CC)C(NC(C)=O)C(N)C1` (configuration not stated), the LC retention time was 4.43 min in data set [1] and 5.35 min in data set [2].
For `CCOC(=O)C(N)Cc1c[nH]c2ccccc12` (configuration not stated) the same measures were 3.82 min and 5.01 min.
The matching figures for `COc1cccc(OC)c1C(=O)O`: 3.65 min and 2.18 min.
`Cn1c(=O)c2[nH]c(=O)[nH]c2n(C)c1=O`: the figures for the LC retention time in data set [1] and in data set [2] were 2.47 min and 1.92 min, respectively.
The matching figures for `Cn1cnc2c(ncn2C2OC(CO)C(O)C2O)c1=N` (configuration not stated): 2.33 min and 3.02 min.
For `O=C(O)c1cc(=O)[nH]c(=O)[nH]1` the same measures were 1.01 min and 0.811 min.
Take `COC(=O)C(Cc1ccccc1)NC(=O)C(N)CC(=O)O` (configuration not stated): the results for the LC retention time in data set [1] and in data set [2] were 3.56 min and 3.67 min, respectively.
For `NCC(O)c1ccccc1` (configuration not stated) the same measures were 2.04 min and 3.07 min.
The matching figures for `NC(=O)CCC(NC(=O)Cc1ccccc1)C(=O)O` (configuration not stated): 3.27 min and 2.69 min.
For `OCC1OCC(O)C(O)C1O` (configuration not stated) the same measures were 0.864 min and 0.865 min.
Take `Nc1ccccc1S(=O)(=O)O`: the LC retention time in data set [1] was 1.79 min; in data set [2] it was 1.68 min.
The matching figures for `COc1cc(C(=O)O)cc(OC)c1O`: 3.43 min and 1.59 min.
In the case of `NC(=O)C1CCCN1C(=O)C(Cc1cnc[nH]1)NC(=O)C1CCC(=O)N1` (configuration not stated), the LC retention time in data set [1] was 1.76 min; in data set [2], 2.36 min.
For `CC(=O)NC(CC(N)=O)C(=O)O` (configuration not stated), the LC retention time in data set [1] is 0.981 min; in data set [2] it was 0.76 min.
The matching figures for `[2H]c1c([2H])c([2H])c(C(=O)NCC(=O)O)c([2H])c1[2H]`: 3.22 min and 2.42 min.
The matching figures for `CC(CN)C(=O)O` (configuration not stated): 0.839 min and 0.808 min.
For `c1ccc2[nH]ccc2c1` the same measures were 4.7 min and 4.85 min.
Regarding `O=C(O)CCCCc1ccccc1`, the LC retention time in data set [1] is 5 min; in data set [2], 4.37 min.
As for `Oc1cccc(O)c1O`, the LC retention time in data set [1] is 1.94 min; in data set [2] it was 1.93 min.
